Measured values as given in patent publication US12514832B2, “Methods for using low-dose colchicine after myocardial infarction” (INSTITUT DE CARDIOLOGIE DE MONTREAL, priority 2019, dated 2026).
Where “and” joins values, the source holds several entries; their conditions need not be identical. Identical values can stand only once.

System: rs149354567 (CDRT8/PMP22, chromosome 17); rs10811106 (SAXO1, chromosome 9)
Assay: COLCOT pharmacogenomic GWAS and Cox / recurrent-event analyses of the primary efficacy end point by genotype
Type: in vivo, human
Settings: for Primary end point, HR (95% CI) for rs149354567 minor (GA) versus major (G) allele: Cox, controlling for age, sex, C1-C10; for Recurrent primary end point events, Hazard Ratio (95% CI), Andersen-Gill model / Recurrent primary end point events, Hazard Ratio (95% CI), WLW model K = 2, 1st Event / Recurrent primary end point events, Hazard Ratio (95% CI), WLW model K = 2, 2nd Event / Recurrent primary end point events, Hazard Ratio (95% CI), WLW model K = 2, Average / Recurrent primary end point events, Rate Ratio (95% CI), Negative binomial model: colchicine vs placebo
Description: FIG. 3 is a Manhattan plot of a Genome-wide Association Study (GWAS) with common single-nucleotide polymorphisms (SNPs) with minor allele frequency (MAF)≥5% for the primary efficacy end point using a survival analysis (coxph) regression with all patients in colchicine treatment arm (compliant ITT pgx population) in the COLCOT cohort, controlling for age, sex, principal components (C1-C10) with a threshold of 5.000E-08 (4,462,492 variants and 702 samples).
FIG. 4 is a plot of SNPs located on chromosome 17 (from 14,623,118 to 15,623,118 bp) for the primary efficacy end point using a survival analysis (coxph) regression with all patients in colchicine treatment arm (compliant ITT pgx population) in the COLCOT cohort, controlling for age, sex, principal components (C1-C10) with a threshold of 5.000E-08 (4,462,492 variants and 702 samples).
(§1) FIG. 8 is a Manhattan plot of GWAS with common SNPs with MAF≥5% for the primary efficacy endpoint using a survival analysis (coxph) regression with male patients in colchicine treatment arm (compliant ITT pgx population) in the COLCOT cohort, controlling for age, sex specific principal components (SC1-SC10) with a threshold of 5.000E-08 (4,455,743 variants and 576 samples).
as §1, with “FIG. 9” for “FIG. 8”, “a” for “a Manhattan”, “of single-nucleotide polymorphisms (SNPs) located on chromosome 9 (from 18,537,533 to 19,537,533 bp)” for “of GWAS with common SNPs with MAF≥5%”, “for” for “for the”
A Genome-wide Association Study (GWAS) was performed for the COLCOT primary efficacy end points. The primary efficacy endpoints were, the earliest occurrence of: cardiovascular death, resuscitated cardiac arrest, acute myocardial infarction, stroke, or urgent hospitalization for angina requiring coronary revascularization.
A plot of SNPs located on chromosome 17 (from 14,623,118 to 15,623, 118 bp) for the primary efficacy end point using a survival analysis (coxph) regression with all patients in colchicine treatment arm (compliant ITT pgx population) in the COLCOT cohort is shown in FIG. 4. Within this region, SNP rs149354567 was identified for further analysis (Table 10). SNP rs149354567 is intergenic for the CDR8T (CMT1A duplicated region transcript 8) gene and the PMP22 (peripheral myelin protein 22) gene.
A Cox statistical analysis for the primary endpoint comparing the chromosome 17 SNP rs149354567 minor versus major alleles by treatment arms is shown in Table 11 below.
A Cox statistical analysis for the primary end point comparing colchicine versus placebo for SNP rs149354567 genotypes is shown in Table 12 below.
The above analysis is based on time to first event among the components of the primary end point. Three other analyses were also considered to account for multiple events within subjects. These analyses make use of all events, including the ones that occur after the first. The Wei, Lin, and Weissfeld (WLW) marginal model, the Andersen and Gill (AG) model, and the negative binomial model were used.
A further region of the genome with a genetic variant, rs10811106, that, in males, is associated with efficacy of colchicine in the prevention of cardiovascular events in participants recruited within 30 days of a myocardial infarction (acute coronary syndrome) was identified using similar statistical analyses (FIG. 8). SNP rs10811106 is intronic in the SAXO1 (stabilizer of axonemal microtubules 1) gene (FIG. 9). SNP rs10811106 was associated with the primary efficacy endpoint of COLCOT (composite of cardiovascular death, resuscitated cardiac arrest, myocardial infarction, stroke, or urgent hospitalization for angina requiring coronary revascularization) in the colchicine treatment arm (P=5.8×10^−8).

[1] = colchicine arm N=2, rs149354567 genotype GA/GA
[2] = colchicine arm N=102, rs149354567 genotype G/GA
[3] = colchicine arm N=585, rs149354567 genotype G/G
[4] = colchicine arm N=689, all rs149354567 genotypes
[5] = rs10811106 chr 9, EA T vs NEA C, N 564, 30 events

Structure (SMILES): COc1cc2c(c(OC)c1OC)-c1ccc(OC)c(=O)cc1[C@@H](NC(C)=O)CC2 [Colchicine, colchicine]
- fewer cardiovascular events with colchicine compared to placebo (carriers of genotype G-/G- at rs149354567): 40%
- Recurrent primary end point events, Hazard Ratio (95% CI) for one unit increase of rs149354567 dosage, Andersen-Gill model (colchicine arm): 4.55 (2.45; 8.46)
- Recurrent primary end point events, Hazard Ratio (95% CI) for one unit increase of rs149354567 dosage, WLW model K = 2, 1st Event (colchicine arm): 5.30 (2.90; 9.70)
- Recurrent primary end point events, Hazard Ratio (95% CI) for one unit increase of rs149354567 dosage, WLW model K = 2, 2nd Event (colchicine arm): 3.96 (0.99; 15.80)
- Recurrent primary end point events, Hazard Ratio (95% CI) for one unit increase of rs149354567 dosage, WLW model K = 2, Average (colchicine arm): 5.28 (2.88; 9.66)
- Recurrent primary end point events, Rate Ratio (95% CI) for one unit increase of rs149354567 dosage, Negative binomial model (colchicine arm): 4.58 (2.40; 8.74)
- Primary end point events rate per 100 subject-months (colchicine arm N=2, genotype GA/GA): 0 per 100 subject-months
- Total number of primary end point events (colchicine arm N=2, genotype GA/GA, 24 follow-up months): 0
- Primary end point, patients with events (at least one event) (colchicine arm N=2, rs149354567 GA/GA): 0
- Number of subjects with 0 primary end point events [1]: 2
- Number of subjects with 1 primary end point event [1]: 0
- Number of subjects with 2 primary end point events [1]: 0
- Number of subjects with 3 primary end point events [1]: 0
- Number of subjects with 4 primary end point events [1]: 0
- Primary end point events rate per 100 subject-months (colchicine arm N=102, genotype G/GA): 0.71 per 100 subject-months
- Total number of primary end point events (colchicine arm N=102, genotype G/GA, 2678 follow-up months): 19
- Primary end point, patients with events (at least one event) (colchicine arm N=102, rs149354567 G−/GA): 17
- Number of subjects with 0 primary end point events [2]: 85
- Number of subjects with 1 primary end point event [2]: 15
- Number of subjects with 2 primary end point events [2]: 2
- Number of subjects with 3 primary end point events [2]: 0
- Number of subjects with 4 primary end point events [2]: 0
- Primary end point, patients with events (colchicine arm N=104, rs149354567 G−/GA+GA/GA): 17
- Primary end point events rate per 100 subject-months (colchicine arm N=585, genotype G/G): 0.16 per 100 subject-months
- Total number of primary end point events (colchicine arm N=585, genotype G/G, 14370 follow-up months): 23
- Primary end point, patients with events (at least one event) (colchicine arm N=585, rs149354567 G−/G−): 20
- Number of subjects with 0 primary end point events [3]: 565
- Number of subjects with 1 primary end point event [3]: 17
- Number of subjects with 2 primary end point events [3]: 3
- Number of subjects with 3 primary end point events [3]: 0
- Number of subjects with 4 primary end point events [3]: 0
- Number of subjects with 0 primary end point events [4]: 652
- Number of subjects with 1 primary end point event [4]: 32
- Number of subjects with 2 primary end point events [4]: 5
- Number of subjects with 3 primary end point events [4]: 0
- Number of subjects with 4 primary end point events [4]: 0
- Primary end point events rate per 100 subject-months [4]: 0.25 per 100 subject-months
- Total number of primary end point events (colchicine arm N=689, all rs149354567 genotypes, 17072 follow-up months): 42
- Primary end point, patients with events (at least one event) (colchicine arm N=689, all rs149354567 genotypes, compliant ITT pgx population): 37
- Primary end point, % of events (colchicine arm, all rs149354567 genotypes): 5.4%
- Primary end point, hr per effect allele, rs75780450 (T vs C) (colchicine arm, males + females, compliant ITT pgx population): 4.611
- Primary end point, hr per effect allele, rs1854156 (C vs G) (colchicine arm, males only): 5.104
- Primary end point, hr per effect allele, rs10118790 (A vs G) (colchicine arm, males only): 5.05
- Primary end point, hr per effect allele, rs10811106 (T vs C) (colchicine arm, males only): 5.503
- Primary end point, hr per effect allele, rs10963895 (A vs G) (colchicine arm, males only): 4.191
- Primary end point, hr per effect allele, rs28733572 (C vs G) (colchicine arm, males only): 5.043
- Primary end point, % of events (colchicine arm, rs149354567 G−/GA): 16.7%
- Primary end point, % of events (colchicine arm, rs149354567 G−/GA+GA/GA): 16.3%
- Primary end point, % of events (colchicine arm, rs149354567 G−/G−): 3.4%
- Primary end point, HR (95% CI) for rs149354567 minor (GA) versus major (G) allele (colchicine arm, compliant ITT pgx population): 5.30 (2.84-9.89)
- Primary end point, HR (95% CI) for rs149354567 minor (GA) versus major (G) allele (colchicine arm, compliant ITT pgx population, listed as colchicine): 5.30 and 5.299
- Recurrent primary end point events, Hazard Ratio (95% CI), Andersen-Gill model (all rs149354567 genotypes): 0.61 (0.39; 0.96)
- Recurrent primary end point events, Hazard Ratio (95% CI), WLW model K = 2, 1st Event (all rs149354567 genotypes): 0.82 (0.53; 1.28)
- Recurrent primary end point events, Hazard Ratio (95% CI), WLW model K = 2, 2nd Event (all rs149354567 genotypes): 0.28 (0.10; 0.73)
- Recurrent primary end point events, Hazard Ratio (95% CI), WLW model K = 2, Average (all rs149354567 genotypes): 0.80 (0.52; 1.25)
- Recurrent primary end point events, Rate Ratio (95% CI), Negative binomial model (all rs149354567 genotypes): 0.57 (0.34; 0.94)
- Recurrent primary end point events, Hazard Ratio (95% CI), Andersen-Gill model (rs149354567 genotype G/G): 0.48 (0.27; 0.85)
- Recurrent primary end point events, Hazard Ratio (95% CI), WLW model K = 2, 1st Event (rs149354567 genotype G/G): 0.60 (0.34; 1.04)
- Recurrent primary end point events, Hazard Ratio (95% CI), WLW model K = 2, 2nd Event (rs149354567 genotype G/G): 0.25 (0.07; 0.85)
- Recurrent primary end point events, Hazard Ratio (95% CI), WLW model K = 2, Average (rs149354567 genotype G/G): 0.59 (0.34; 1.03)
- Recurrent primary end point events, Rate Ratio (95% CI), Negative binomial model (rs149354567 genotype G/G): 0.43 (0.23; 0.82)
- Recurrent primary end point events, Hazard Ratio (95% CI), Andersen-Gill model (rs149354567 genotype G/G, listed as colchicine): 0.48
- Recurrent primary end point events, Hazard Ratio (95% CI), Andersen-Gill model (rs149354567 genotype G/GA): 0.84 (0.34; 2.11)
- Recurrent primary end point events, Hazard Ratio (95% CI), WLW model K = 2, 1st Event (rs149354567 genotype G/GA): 1.62 (0.69; 3.79)
- Recurrent primary end point events, Hazard Ratio (95% CI), WLW model K = 2, 2nd Event (rs149354567 genotype G/GA): 0.17 (0.03; 1.02)
- Recurrent primary end point events, Hazard Ratio (95% CI), WLW model K = 2, Average (rs149354567 genotype G/GA): 1.35 (0.58; 3.12)
- Recurrent primary end point events, Rate Ratio (95% CI), Negative binomial model (rs149354567 genotype G/GA): 0.91 (0.39; 2.08)
- fewer cardiovascular events with colchicine compared to placebo (males, genotype C/C at rs10811106): 54%
- Primary end point in males only, HR (95% CI) colchicine versus placebo (rs10811106 CT (16%), N total 182): 2.49 (0.92-6.75)
- Coefficient, genetic association, chromosome 9 locus (primary efficacy end point) [5]: 1.705
- HR (hazard ratio), genetic association, chromosome 9 locus (primary efficacy end point) [5]: 5.50
